# Measured values as given in ChEMBL document CHEMBL3301361, “Experimental in vitro DMPK and physicochemical data on a set of publicly disclosed compounds”.
# What was measured:
# [1] = in vitro; details: human, hepatocytes
# [2] = physchem; details: pH 7.4 buffer
# [3] = physchem; details: octan-1-ol/water
# [4] = in vitro; details: human, plasma
# [5] = in vitro; details: human
# [6] = in vitro; details: SD, HW or BN, rat, plasma
# [7] = in vitro; details: hepatocytes
SMILES,hepatocyte CLint [1] [µL/min/1e6 cells],also measured
CS(=O)(=O)C1(c2cc(N3CCOCC3)nc(-c3cccc4[nH]ncc34)n2)CC1,< 3,–
COc1cc(N2CC3CNCC(C2)O3)ccc1Nc1ncc(Cl)c(-c2cnc3ccccn23)n1,13.8,solubility thermodynamic [2]: 25.1 µM
C[C@]12CC[C@H]3[C@@H](CCC4=CC(=O)CC[C@@]43C)[C@@H]1CC[C@@H]2O [TESTOSTERONE],> 150,–
C[C@H]1COCCN1c1nc(N2CCOC[C@@H]2C)c2ccc(-c3ccc4nc[nH]c(=O)c4c3)nc2n1,> 150,–
CCCS(=O)(=O)Nc1ccc(F)c(C(=O)c2c[nH]c3ncc(-c4ccc(Cl)cc4)cc23)c1F [VEMURAFENIB],6.61,–
N=C(N)N1CCc2ccccc2C1 [DEBRISOQUIN],3.98,"logD ([3]; pH 7.4, LogD7.4): -1.01"
COc1ccccc1SC[C@@H](C)CN[C@@H]1COc2ccccc2SC1,51.3,–
N=c1c(S(=O)(=O)c2ccc(Cl)cc2)cc2c(=O)n3ccccc3nc2n1C1CCCC1,35.5,fraction unbound at 5 h ([4]; PPB): 0.5
Cc1ccc2c(c1)c(Sc1ccc(S(C)(=O)=O)cc1)c(C)n2CC(=O)O,< 3,"logD ([3]; pH 7.4, LogD7.4): -0.08; fraction unbound at 5 h ([4]; PPB): 0.0081; microsomal CLint ([5]; liver microsomes): < 3 µL/min/mg"
NC(=O)c1ccn2c(-c3ccccc3)c(-c3ccc(C4(N)CCC4)cc3)nc2c1,3.72,solubility thermodynamic [2]: 112 µM
Cc1ccc(-c2cc(C(F)(F)F)nn2-c2ccc([S+](C)[O-])cc2)cc1 (stereo not drawn),14.8,–
O=C(CN1CCOCC1)Nc1ccc(-c2cccc3c(=O)cc(N4CCOCC4)oc23)cc1OCCN1CCCC1,5.5,–
O=C(O)c1ccc(-n2nc(C(F)(F)F)cc2-c2ccc(C(F)(F)F)cc2)cc1,9.33,–
CC(C)(CO)Nc1nc(SCc2cccc(F)c2F)nc2nc(N)sc12,5.88,"logD ([3]; pH 7.4, LogD7.4): 3.37"
Cn1cnc2c(-c3ccc(C4(N)CCC4)cc3)c(-c3ccccc3)ccc21,3.31,–
CC(C)Oc1cc(-c2cccc3c(=O)cc(N4CCOCC4)oc23)ccc1NC(=O)CN1CCOCC1,87.1,"logD ([3]; pH 7.4, LogD7.4): 3; solubility thermodynamic [2]: 4 µM"
Clc1ccc(Cn2c(-c3nn[nH]n3)cc3ccccc32)cc1Cl,12.9,–
CCN(C(=O)c1ccc(-c2ccc(Cl)cc2)o1)c1ccc(N2CCNCC2)cc1,< 3,"logD ([3]; pH 7.4, LogD7.4): 3.3"
Cc1c(Cl)cccc1S(=O)(=O)N1CCC[C@H](C(=O)NC2CCCCC2)C1,18.6,–
Cc1ccc(-n2c(C)cc(/C=C3\SC(=O)NC3=O)c2C)cc1,17.8,fraction unbound at 5 h ([4]; PPB): 0.0016
O=C(O)C1(c2ccc(-c3ccc(Cl)c(Cl)c3)c(F)c2)CC1,38.9,–
NC1(c2ccc(-c3ncc4cccnc4c3-c3ccccc3)cc2)CCC1,19.5,–
N#Cc1ccc(C(c2ccc(C#N)cc2)n2cncn2)cc1 [LETROZOLE],< 3,"logD ([3]; pH 7.4, LogD7.4): 1.7; fraction unbound at 5 h ([4]; PPB): 0.483"
CC(C)C[C@H](CO)Nc1nc(SCc2ccccc2)nc2nc(N)sc12,20.4,"logD ([3]; pH 7.4, LogD7.4): 4.2"
NC1(c2ccc(-c3ncc4cnccc4c3-c3ccccc3)cc2)CCC1,> 150,–
COc1ccc(/C=C2\NC(=O)NC2=O)cc1,39.8,–

SMILES,hepatocyte CLint [1] [µL/min/1e6 cells],also measured
CCC1=C(C)CN(C(=O)NCCc2ccc(S(=O)(=O)NC(=O)N[C@H]3CC[C@H](C)CC3)cc2)C1=O [GLIMEPIRIDE],23.2,"logD ([3]; pH 7.4, LogD7.4): 1.73"
CC#C[C@]1(O)CC[C@H]2[C@@H]3CCC4=CC(=O)CCC4=C3[C@@H](c3ccc(N(C)C)cc3)C[C@@]21C [MIFEPRISTONE],26.9,solubility thermodynamic [2]: 1.9 µM; fraction unbound at 5 h ([4]; PPB): 0.0015; microsomal CLint ([5]; liver microsomes): 79 µL/min/mg
Cc1ccc(-c2cccc(-c3nn[nH]n3)c2)cc1,52.5,–
Nc1nc(-c2ccc(Cl)c(Cl)c2)c(-c2ccncc2)s1,19.1,fraction unbound at 5 h ([4]; PPB): 0.0074
CC[C@H](CO)Nc1nc(SCc2cccc(F)c2F)nc2nc(N)sc12,5.16,fraction unbound at 5 h ([4]; PPB): 0.0149; microsomal CLint ([5]; liver microsomes): 62 µL/min/mg
Cc1cc(C)nc(Nc2cccc(C(F)(F)F)c2)n1,36.3,–
N#Cc1cccc(-c2cccc(C(=O)O)c2)c1,8.13,"logD ([3]; pH 7.4, LogD7.4): 0.3"
CNc1ncnc2c(CNc3cc(NC(=O)c4ccc5c(c4)OCCO5)ccc3C)cccc12,41.7,"logD ([3]; pH 7.4, LogD7.4): 4; solubility thermodynamic [2]: 9.3 µM"
CCOc1ccc2nc3ccc(=O)cc-3oc2c1 [ETHOXYRESORUFIN],> 150,–
NC1(c2ccc(-c3c(-c4ccccc4)ccc4ccnn34)cc2)CCC1,10.2,–
O=S(=O)(Nc1ccc(C(F)(F)F)cc1)c1ccc2sc(CO)nc2c1,15.5,fraction unbound at 5 h ([4]; PPB): 0.0027
COc1cc(C2CCN(C(C)=O)CC2)ccc1Nc1ncc(Cl)c(-c2cnc3ccccn23)n1,24,solubility thermodynamic [2]: 2.2 µM
O=C1NC(=O)C(=CC=Cc2ccccc2)S1,10.5,–
COCCOc1cc(-c2cccc3c(=O)cc(N4CCOCC4)oc23)ccc1NC(=O)CN1CCOCC1,43.6,–
C[C@]12CC[C@H](O)CC1=CC[C@@H]1[C@@H]2CC[C@]2(C)C(c3cccnc3)=CC[C@@H]12 [ABIRATERONE],55,–
Cc1c(N(C)C)c(=O)n(-c2ccccc2)n1C [AMINOPYRINE],3.47,–
O=C1CN=C(c2ccccc2Cl)c2cc([N+](=O)[O-])ccc2N1 [CLONAZEPAM],3.72,logD ([3]; pH 7.4): 3.72; solubility thermodynamic [2]: 240 µM
CC(C)C[C@H](CO)Nc1nc(SCc2ccccc2)nc2[nH]c(=O)sc12,13.5,"logD ([3]; pH 7.4, LogD7.4): 4.2"
Cc1c(Oc2ccc(Cl)cc2)c2c(NS(C)(=O)=O)cccc2n1CC(=O)O,< 3,"logD ([3]; pH 7.4, LogD7.4): -0.98; fraction unbound at 5 h ([4]; PPB): 0.0374; microsomal CLint ([5]; microsomes): < 3 µL/min/mg"
Nc1ncc(-c2ccc(S(=O)(=O)N3CCCC3)cc2)nc1C(=O)Nc1cccnc1,< 3,–
O=C(CN1CCOCC1)Nc1ccc(-c2cccc3c(=O)cc(N4CCOCC4)oc23)cc1O,18.6,"logD ([3]; pH 7.4, LogD7.4): 2.4; solubility thermodynamic [2]: 7.2 µM"
CC(C)(C)NC(=O)NCCN1CCC(CO)(CNC(=O)c2cc(Cl)cc(Cl)c2)CC1,7.08,–
CCOc1cc(-c2cccc3c(=O)cc(N4CCOCC4)oc23)ccc1NC(=O)CN1CCOCC1,51.3,"logD ([3]; pH 7.4, LogD7.4): 2.8; solubility thermodynamic [2]: 1.4 µM"
CNC(=O)c1ccccc1Nc1nc(Nc2ccc(N3CCOCC3)cc2OC)ncc1Cl,16.2,solubility thermodynamic [2]: 0.4 µM
Cn1cc(C2=C(c3cn(C4CCN(Cc5ccccn5)CC4)c4ccccc34)C(=O)NC2=O)c2ccccc21 [ENZASTAURIN],6,solubility thermodynamic [2]: 0.8 µM; fraction unbound at 5 h [4]: 0.0017
CC(C)c1cc(C(=O)N2Cc3ccc(CN4CCN(C)CC4)cc3C2)c(O)cc1O [ONALESPIB],23.4,"logD ([3]; pH 7.4, LogD7.4): 2.5; solubility thermodynamic [2]: 93.3 µM"

SMILES,hepatocyte CLint [1] [µL/min/1e6 cells],also measured
Nc1c(-c2ccccc2)nc(Cl)nc1-c1ccccc1,46.8,–
NC1(c2ccc(-c3c(-c4ccccc4)ccn4ncnc34)cc2)CCC1,< 3,–
Cc1cc(CC(=O)O)n(C)c1C(=O)c1ccc(Cl)cc1 [ZOMEPIRAC],< 3,–
C=CCOc1cc(-c2cccc3c(=O)cc(N4CCOCC4)oc23)ccc1NC(=O)CN1CCOCC1,83.2,"logD ([3]; pH 7.4, LogD7.4): 3; solubility thermodynamic [2]: 4.7 µM"
Cc1ccc2nc(C(=O)O)[nH]c2c1,9.77,–
COc1ncccc1-c1cccc2c(N)c3c(nc12)CN(C1CCC1)C3=O,4.88,–
O=c1ccc2ccc(O)cc2o1 [UMBELLIFERONE],123,–
Clc1ccc(COc2ccc(Br)cc2CN2CCOCC2)cc1,55,–
COc1cc(N2CCN(C(=O)[C@@H](C)O)CC2)ccc1Nc1ncc(Cl)c(-c2cnc3ccccn23)n1,12.6,–
C[C@]12CC[C@H](O)CC1=CCC1C2CC[C@]2(C)C(n3cnc4ccccc43)=CCC12 (stereo partly drawn),34.7,–
NC1(c2ccc(-c3ncc4cccn4c3-c3ccccc3)cc2)CCC1,< 3,–
Nc1ccc2c(c1)Cc1cc(N)ccc1-2,61.7,–
O=C(O)CC[C@@H](Cc1ccc(OCc2ccccc2)cc1)NC(=O)CCCCCCc1ccccc1,17.4,–
O=C(NCc1ccc(OC(F)(F)F)cc1)C1c2ccccc2C(=O)N1CC1CC(F)(F)C1 (stereo not drawn),10,"logD ([3]; pH 7.4, LogD7.4): 3.9"
CC(C)(C)S(=O)(=O)N[C@H]1CC[C@H](C(=O)Nc2ccc(C(F)(F)F)cn2)CC1,5.75,fraction unbound at 5 h ([4]; PPB): 0.0409
COCCOc1nc(N)c2[nH]c(=O)n(Cc3cccc(CC(=O)OC)c3)c2n1,125,"logD ([3]; pH 7.4, LogD7.4): 1.86; solubility thermodynamic [2]: 21.9 µM"
CC(C)COc1cc(-c2cccc3c(=O)cc(N4CCOCC4)oc23)ccc1NC(=O)CN1CCOCC1,> 150,"logD ([3]; pH 7.4, LogD7.4): 3.8; solubility thermodynamic [2]: 3.5 µM"
O=C(O)C1CSC(c2ccccc2Cl)N1C(=O)c1ccc(Cl)cc1 (stereo not drawn),15.5,–
O=C1Nc2ccc(Cl)cc2[C@@](C#CC2CC2)(C(F)(F)F)O1 [EFAVIRENZ],8.51,–
COc1cc(C(CO)CO)ccc1Nc1ncc(Cl)c(-c2cnc3ccccn23)n1,19.9,"logD ([3]; pH 7.4, LogD7.4): 3.1; solubility thermodynamic [2]: 6.8 µM"
C[C@H]1COCCN1c1nc(N2CCOC[C@@H]2C)c2ccc(-c3cccc(C(=O)NCCO)c3)nc2n1,10,"logD ([3]; pH 7.4, LogD7.4): 2.49"
CC(c1cc2ccccc2s1)N(O)C(N)=O (stereo not drawn) [ZILEUTON],7.76,"logD ([3]; pH 7.4, LogD7.4): 2.05; solubility thermodynamic [2]: 436 µM"
Cc1ccc(N2CC(COc3ccc(-c4noc(C)n4)cc3)C2)nn1,–,"logD ([3]; pH 7.4, LogD7.4): 2.62; solubility thermodynamic [2]: 129 µM; fraction unbound at 5 h ([4]; PPB): 0.062; fraction unbound at 5 h [6]: 0.0488; microsomal CLint ([5]; microsomes): 26.3 µL/min/mg; hepatocyte CLint [7]: 6 µL/min/1e6 cells"
Cc1ccc(-c2cc(C(F)(F)F)nn2-c2ccc(C(=O)O)cc2)cc1,10.7,–
NS(=O)(=O)c1ccc(-n2nc(C(F)(F)F)cc2-c2ccc(C(F)(F)F)cc2)cc1,18.2,–
Cc1ccc(-c2cc(C(F)(F)F)nn2-c2ccc(S(C)(=O)=O)cc2)cc1,17.4,–
